We go through two compounds from patent publication US20120196918A1, “PREVENTING ISLET INFLAMMATION AND DYSFUNCTION AND MAINTAINING PROPER GLUCOSE LEVELS BY CONTROLLING eIF5A AND ITS HYPUSINATION” (priority 2009, published 2012).

The subject of one data set is iNOS. Nature of the data set: Nitrite release into INS-1 cell medium (Griess reagent). Type of data set: cell-based, rat. The note with it: increasing GC7 concentrations, cytokines 4 h; greatest inhibition at 125 μM. From the text:
eIF5A1 and eIF5A2 are the only proteins known to contain the unique amino acid hypusine at position 50. Hypusine is formed as a posttranslational modification of residue Lys50 in a reaction requiring spermidine and catalyzed by the sequential actions of the enzymes deoxyhypusine synthase (DHS) and deoxyhypusine hydroxylase (DOHH) (Chen, K Y, and Liu, A Y. Biochemistry and function of hypusine formation on eukaryotic initiation factor 5A. Biol Signals. 1997; 6(3):105-109). […] To further investigate the mechanism of eIF5A-regulated translation of Nos2, studies were performed following overnight incubation of cells with mimosine (an inhibitor of DOHH) and GC7 (an inhibitor of DHS). […]
Immunoblot and nitrite and iNOS assays: Whole cell extracts were resolved by electrophoresis on a 4-20% SDS-polyacrylamide gel, followed by immunoblot using anti-eIF5A1, anti-eIF5A2, anti-iNOS, anti-GFP, or anti-actin primary antibodies and fluorophore-labeled secondary antibodies. Immunoblots were visualized using the Li-Cor® Odyssey® system (Li-Cor Biosciences) and quantitated by scanning fluorometry using Odyssey Imaging v. […] Nitrite was quantitated by measuring nitric oxide-derived nitrite from INS-1 cell culture medium using the Griess reagent (Promega) according to the manufacturer's recommendations. iNOS activity was measured using a commercially available kit (Cayman).

Data set [1] has as its system STZ-treated C57BL/6J mice. Nature of the data set: Multiple low-dose streptozotocin (STZ) diabetes model in C57BL/6J mice. The class given is in vivo, mouse. Here is the method:
To test the role of eIF5A in cytokine-mediated islet dysfunction, efforts were made to identify a mouse model of islet inflammation. The multiple low dose streptozotocin (STZ) model, in which mice are subjected to five daily intraperitoneal doses (at 55 mg/kg body weight) of STZ, is considered to provoke local islet inflammation and cytokine release, in part through the recruitment of CD11c+ dendritic cells that release pro-inflammatory cytokines in the area of STZ-induced cellular destruction (27 and 28).
C57BL/6J mice were injected intraperitoneally with either stabilized siRNA against eIF5A (si-eIF5A) or control siRNA (si-Control) daily for three days, then subjected to the multiple low-dose STZ protocol (see schematic in FIG. 1a). […] The effect of administering si-eIF5A on islet viability following STZ treatment was determined by performing immunohistochemical analysis of the pancreata of mice. […] To quantify the differences in islet mass between STZ-treated and untreated animals, morphometry of insulin-stained pancreatic sections was performed.
Based on the observed data, if hypusination of eIF5A by DHS is required for cytokine responsiveness in islets, then inhibition of DHS in vivo should protect against low dose STZ diabetes. To test this, C57BL/6J mice were treated with GC7 or vehicle and then subjected to low dose STZ injections. GC7 was delivered in one of two different ways: either by daily bolus intraperitoneal injections (4 mg/kg/day) or by continuous subcutaneous delivery (40 μg/kg/h) using implanted osmotic pumps. A protocol similar to that shown in FIG. 1A was employed in these studies, with GC7 injections or pump implants starting 3 days prior to STZ injections.
Small interfering RNA (siRNA) studies: Stabilized siRNAs for intraperitoneal injections were custom synthesized by Dharmacon using the siSTABLE® modification. Groups of 10 week-old C57BL/6J male mice (from Jackson Labs) received daily intraperitoneal injections of 1.6 mg/kg siRNA prepared in 0.9% saline or vehicle alone (0.9% saline) for 3 days. For in vitro studies, islets from each group of injected mice were harvested on the fourth day and pooled prior to analysis. Injections with each siRNA were performed on at least 3 different occasions. siRNA sequences were as follows: siControl, 5′-[…]-3′; si-eIF5A, 5′-[…]-3′. For siRNA studies in the rat β cell-derived line INS-1 (832/13), cells were transfected with a SMART Pool® siRNA against rat eIF5A1 (Dharmacon, #L-083855-01) or non-targeting control siRNA #1 (Dharmacon) using DharmaFECT® transfection reagent (Dharmacon).
Immunostaining and morphometric assessment of β cell mass: Immunostaining of pancreatic sections proceeded as described previously (72). For assessment of islet cell death in pancreatic sections, the technique of terminal deoxynucleotidyl transferase dUTP nick end labeling (TUNEL) was performed using biotinylated 16-dUTP (Roche) and Texas Red Neutravidin (Invitrogen). Digital images of each islet at 40× magnification were acquired using an Axio-Observer D1 microscope (Zeiss) inverted fluorescent microscope equipped with a high-resolution color camera. TUNEL-positive/insulin-positive nuclei were counted manually by an observer blinded to sample identity, and data were re-coded as the average number of TUNEL-positive nuclei per islet. β cell mass was calculated as described previously (73), but with some modifications. Briefly, pancreata from 3 mice per treatment group were rapidly dissected and weighed, fixed in 4% paraformaldehyde, paraffin-embedded, and longitudinally sectioned. Three sections/pancreas (approx. 75 μm apart) were subsequently immunostained for insulin and counterstained with hematoxylin as described (74), and digital images of each section at 10× magnification were acquired on an Axio-Observer Z1 microscope (Zeiss) fitted with an AxioCam high resolution color camera. […]

For the compound `NCCCCCCCN=C(N)N` [GC7], the “nitrite release into the medium” value in the data set with iNOS is listed as “dose-dependent attenuation”. Besides, in data set [1] (GC7 40 μg/kg/h continuous s.c. osmotic pump, started 3 days before STZ), the “STZ-induced glucose intolerance (GTT), osmotic pump GC7” value is listed as “near-complete protection”. Besides, the “STZ-induced glucose intolerance (GTT), intraperitoneal GC7” value in data set [1] (GC7 4 mg/kg/day i.p. bolus, started 3 days before STZ) is recorded as “near-complete protection”. Moreover, the “β cell mass (histomorphometry)” value in data set [1] (GC7-injected animals, STZ) is “full preservation of mass”. Further, the “iNOS production in islets” value in data set [1] (GC7-treated pump animals, STZ) was “suppression of iNOS production”. Moreover, in data set [1] (GC7 plus STZ, STZ alone 0.78), the “TUNEL+ cells per islet” value is reported as 0.42. In addition, the “serum IL-6 levels” value in data set [1] (concurrent treatment with STZ) is listed as “did not affect IL-6 levels”. For the same compound, in data set [1] (pump-implanted animals, STZ), the “insulin secretion at 0 and 30 min during glucose challenge” value is on record as “normal insulin secretory response”.
In the case of “5′-AACGGAAUGACUUCCAGCUGA-3′ (siSTABLE modification, further chemistry not given here) [si-eIF5A]”, the “average fasting blood glucose” value in data set [1] (siRNA 1.6 mg/kg i.p. daily for 3 days, then multiple low-dose STZ, day 7) was found to be 101 mg/dL. Besides, the “immunohistochemical staining for iNOS in islets” value in data set [1] (siRNA i.p., STZ, end of the study) is “undetectable”. Moreover, the “islet number and insulin staining of pancreata (immunohistochemistry)” value in data set [1] (siRNA i.p., multiple low-dose STZ) was “relatively preserved islet number and insulin granularity”. For the same compound, the “glucose tolerance in IPGTT” value in data set [1] (siRNA i.p., multiple low-dose STZ, compared to si-Control-injected mice) is “improved glucose tolerance”. For the same compound, the “reduction of β cell mass compared to non-STZ-treated controls” value in data set [1] (siRNA i.p., multiple low-dose STZ, morphometry of insulin-stained sections) is reported as 1.4 fold. In addition, the “iNOS induction in islets by immunoblot” value in data set [1] (siRNA i.p., 24 h after the first STZ treatment) is reported as “attenuated”.
